These are literature values, as cited in patent US11147270B2, “Pesticide based on formation of formate anion in situ” (priority 2018, dated 2021).

The conditions of this series: at 20° C.

`Cl` [hydrochloric acid]: the vapor pressure entry is recorded as “approximately 32452 mmHg”.
